1 molecule from BindingDB's records for patent US20230382889 (Volastra Therapeutics, 2023) can be followed below.

SMILES strings stand for the structures.

The experiment addresses T1, Kinesin-like protein KIF18A (Homo sapiens, UniProt Q8NI77).
T1 sequence (Q8NI77 whole entry): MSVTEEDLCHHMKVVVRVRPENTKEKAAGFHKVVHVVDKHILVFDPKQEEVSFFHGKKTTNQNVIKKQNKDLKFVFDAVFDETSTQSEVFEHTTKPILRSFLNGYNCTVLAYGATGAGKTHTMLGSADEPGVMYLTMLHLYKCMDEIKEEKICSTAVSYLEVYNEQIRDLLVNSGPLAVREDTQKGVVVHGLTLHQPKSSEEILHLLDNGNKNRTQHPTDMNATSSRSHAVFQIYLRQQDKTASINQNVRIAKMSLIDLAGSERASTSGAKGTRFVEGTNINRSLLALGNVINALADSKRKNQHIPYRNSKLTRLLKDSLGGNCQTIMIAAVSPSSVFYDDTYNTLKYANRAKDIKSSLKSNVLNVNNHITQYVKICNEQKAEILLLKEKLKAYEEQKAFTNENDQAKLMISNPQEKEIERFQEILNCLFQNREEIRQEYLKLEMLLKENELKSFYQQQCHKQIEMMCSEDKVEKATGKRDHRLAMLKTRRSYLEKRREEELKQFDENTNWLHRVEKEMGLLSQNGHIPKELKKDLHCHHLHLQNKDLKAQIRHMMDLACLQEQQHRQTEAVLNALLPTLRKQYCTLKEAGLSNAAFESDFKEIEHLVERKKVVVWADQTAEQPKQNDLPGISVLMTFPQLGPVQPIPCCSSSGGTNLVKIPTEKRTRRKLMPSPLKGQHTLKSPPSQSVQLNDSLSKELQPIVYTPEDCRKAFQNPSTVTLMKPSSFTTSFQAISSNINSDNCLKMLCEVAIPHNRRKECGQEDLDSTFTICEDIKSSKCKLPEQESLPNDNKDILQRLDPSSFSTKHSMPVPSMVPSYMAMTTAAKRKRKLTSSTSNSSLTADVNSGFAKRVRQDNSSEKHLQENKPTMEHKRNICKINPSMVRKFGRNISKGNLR
The experiment is described as follows: Inhibition of KIF18A Microtubule-Dependent ATPase Activity. As for the experimental part:
IC50 values were calculated from concentration vs. % Inhibition data via a four-parameter variable slope model.

A word on the IC50: it is the concentration at which inhibition is half-maximal. `O=S(=O)(CCO)Nc1cc(N2CCC3(CC2)CC3)c(-c2cn(-c3ccc(F)c(S(=O)(=O)N4CC(F)(F)C4)c3)nn2)cn1` [US20230382889, Compound 112] showed an IC50 of 77 nM.
